Experimental data as given in patent US11426394B2, “Method to prevent and treat macular degeneration by calcium channel blockers, angiotensin converting enzyme inhibitors, and angiotensin receptor blockers” (priority 2018, dated 2022).

Columns and labels:
[1] = in vivo; cited from earlier work
Macular Degeneration = settings: chronic use; cited from earlier work
wet macular degeneration = experiment: Patient with wet macular degeneration: one eye treated, other eye left untreated; type: in vivo, human
Text: (§1) A patient is diagnosed with wet macular degeneration. A composition comprising the calcium channel blocker nifedipine is directly applied to the vitreous surface of one eye while the other eye is left untreated. […] A patient is diagnosed with wet macular degeneration. A composition comprising the ACE inhibitor enalapril is directly applied to the vitreous surface of one eye while the other eye is left untreated. […] A patient is diagnosed with wet macular degeneration. A composition comprising the angiotensin receptor blocker losartan is directly applied to the vitreous surface of one eye while the other eye is left untreated. […] A patient is diagnosed with wet macular degeneration. A composition comprising the calcium channel blocker nifedipine is directly injected into the intraocular space of one eye while the other eye is left untreated. […] A patient is diagnosed with wet macular degeneration. A composition comprising the ACE inhibitor enalapril is directly injected into the intraocular space of one eye while the other eye is left untreated. […] A patient is diagnosed with wet macular degeneration. A composition comprising the angiotensin receptor blocker losartan is directly injected into the intraocular space of one eye while the other eye is left untreated.

dry macular degeneration = experiment: Patient with dry macular degeneration: one eye treated, other eye left untreated; type: in vivo, human
Text: as §1, with “dry” for “wet”

[2] = composition directly applied to the vitreous surface of one eye
[3] = composition directly injected into the intraocular space of one eye

Molecule	symptoms of wet macular degeneration, treated eye versus untreated eye (wet macular degeneration; [2])	symptoms of wet macular degeneration, treated eye versus untreated eye (wet macular degeneration; [3])	symptoms of dry macular degeneration, treated eye versus untreated eye (dry macular degeneration; [2])	symptoms of dry macular degeneration, treated eye versus untreated eye (dry macular degeneration; [3])	further results
CC1=C(/C=C/C(C)=C/C=C/C(C)=C/C=C/C=C(C)/C=C/C=C(C)/C=C/C2=C(C)CCCC2(C)C)C(C)(C)CCC1 [Beta carotene, beta carotene]					lung cancer [1]: increase lung cancer
CC(=O)Oc1ccccc1C(=O)O [aspirin]					association with Macular Degeneration (Macular Degeneration): increase in Macular Degeneration
CCOC(=O)[C@H](CCc1ccccc1)N[C@@H](C)C(=O)N1CCC[C@H]1C(=O)O [enalapril]	reduced symptoms of wet macular degeneration	reduced symptoms of wet macular degeneration	reduced symptoms of dry macular degeneration	reduced symptoms of dry macular degeneration	
CCCCc1nc(Cl)c(CO)n1Cc1ccc(-c2ccccc2-c2nn[nH]n2)cc1 [losartan]	reduced symptoms of wet macular degeneration	reduced symptoms of wet macular degeneration	reduced symptoms of dry macular degeneration	reduced symptoms of dry macular degeneration	
tocopherol					all-cause mortality [1]: increase in all-cause mortality
